Data on two compounds can be found in patent publication US20250051458A1, “Methods for Treating Neurodegeneration Targeting IGF1/IGF1R” (The Schepens Eye Research Institute, Inc., priority 2021, published 2025).

Entries after “also recorded” stand apart in the source; their conditions may differ.

Assay [1] has as its target IGF-1R on mouse microglia (primary retinal and brain microglia, BV2 cell line) (mouse) (UniProt Q60751). Kind of assay: cell-based or functional assay.
The subject of assay [2] is human microglial cell line. The assay can be described thus: qPCR of IL-6 induction in LPS+ATP-stimulated human microglial cell line (IGF1R agonist / IGF1 antibody screen). The assay is classed as cell-based. As to conditions: treatment 6 hours after LPS+ATP; compared with various IGF1 antibodies. On the procedure:
FIG. 8. Screening for anti-human IGF1 agonist antibody with a counter-inflammatory effect on microglial activation. Result of qPCR measuring levels of pro-inflammatory cytokine IL-6 induction in human microglial cell line that were stimulated by LPS and ATP (LPS+ATP) followed by treatment with IGF1R agonist Rg5 or various IGF1 antibodies 6 hours after LTP+ATP administration. […] Error bar=SEM. *P<0.05 by one way ANOVA.
qPCR was used to measure levels of pro-inflammatory cytokine IL-6 induction in a human microglial cell line stimulated by LPS and ATP (LPS+ATP) followed by treatment with IGF1R agonist Rg5 or various IGF1 antibodies 6 hours after LTP+ATP administration.
Background: Real-time PCR tracks product formation cycle by cycle.

Assay [3] deals with ischemic optic neuropathy in mice. The assay can be described thus: Mouse model of ischemic optic neuropathy, intravitreal injection. The settings on record: intravitreal injections at days 1, 8 and 17 post injury; 4 weeks after induction. The assay is classed as in vivo. An excerpt:
FIG. 9. Rescue of RGC function and vision by intravitreal injection of IGF1R agonist in a mouse model of ischemic optic neuropathy. Quantifications of electroretinogram positive scotopic threshold response (pSTR) amplitudes, visual acuity and contrast sensitivity before (Baseline) and at 4 weeks (4 wks) after induction of ischemic optic neuropathy in mice received intravitreal injections of control or RG5 IGF1R agonist at day 1, 8 and 17 post injury. Error bar=SEM. *P<0.05 by one way ANOVA.
The adult mice were dark adapted in a dark adaptation chamber overnight before conducting ERG. […] The pSTR was measured from the baseline to the peak of the positive deflection. […]
The mouse was placed on a small platform in the middle of the optomotor chamber. […] The contrast at a given spatial frequency is calculated using the formula (Lmax−Lmin)/(Lmax+Lmin) where Lmax is the brightness (in cd/m^2) of the white stripe, and Lmin is the brightness of the black stripe (in cd/m^2). Contrast level, stripe width, grating speed, and direction of stripe movement (clockwise vs. counterclockwise) were measured. According to the tracking of head movements on the mouse to the moving stripes, the visual acuity and contrast sensitivity can be measured. […] By changing the stripe width and the contrast, visual acuity and contrast sensitivity of mice can be assessed. […]

Chain of UniProt Q60751 (Q60751 31-1373): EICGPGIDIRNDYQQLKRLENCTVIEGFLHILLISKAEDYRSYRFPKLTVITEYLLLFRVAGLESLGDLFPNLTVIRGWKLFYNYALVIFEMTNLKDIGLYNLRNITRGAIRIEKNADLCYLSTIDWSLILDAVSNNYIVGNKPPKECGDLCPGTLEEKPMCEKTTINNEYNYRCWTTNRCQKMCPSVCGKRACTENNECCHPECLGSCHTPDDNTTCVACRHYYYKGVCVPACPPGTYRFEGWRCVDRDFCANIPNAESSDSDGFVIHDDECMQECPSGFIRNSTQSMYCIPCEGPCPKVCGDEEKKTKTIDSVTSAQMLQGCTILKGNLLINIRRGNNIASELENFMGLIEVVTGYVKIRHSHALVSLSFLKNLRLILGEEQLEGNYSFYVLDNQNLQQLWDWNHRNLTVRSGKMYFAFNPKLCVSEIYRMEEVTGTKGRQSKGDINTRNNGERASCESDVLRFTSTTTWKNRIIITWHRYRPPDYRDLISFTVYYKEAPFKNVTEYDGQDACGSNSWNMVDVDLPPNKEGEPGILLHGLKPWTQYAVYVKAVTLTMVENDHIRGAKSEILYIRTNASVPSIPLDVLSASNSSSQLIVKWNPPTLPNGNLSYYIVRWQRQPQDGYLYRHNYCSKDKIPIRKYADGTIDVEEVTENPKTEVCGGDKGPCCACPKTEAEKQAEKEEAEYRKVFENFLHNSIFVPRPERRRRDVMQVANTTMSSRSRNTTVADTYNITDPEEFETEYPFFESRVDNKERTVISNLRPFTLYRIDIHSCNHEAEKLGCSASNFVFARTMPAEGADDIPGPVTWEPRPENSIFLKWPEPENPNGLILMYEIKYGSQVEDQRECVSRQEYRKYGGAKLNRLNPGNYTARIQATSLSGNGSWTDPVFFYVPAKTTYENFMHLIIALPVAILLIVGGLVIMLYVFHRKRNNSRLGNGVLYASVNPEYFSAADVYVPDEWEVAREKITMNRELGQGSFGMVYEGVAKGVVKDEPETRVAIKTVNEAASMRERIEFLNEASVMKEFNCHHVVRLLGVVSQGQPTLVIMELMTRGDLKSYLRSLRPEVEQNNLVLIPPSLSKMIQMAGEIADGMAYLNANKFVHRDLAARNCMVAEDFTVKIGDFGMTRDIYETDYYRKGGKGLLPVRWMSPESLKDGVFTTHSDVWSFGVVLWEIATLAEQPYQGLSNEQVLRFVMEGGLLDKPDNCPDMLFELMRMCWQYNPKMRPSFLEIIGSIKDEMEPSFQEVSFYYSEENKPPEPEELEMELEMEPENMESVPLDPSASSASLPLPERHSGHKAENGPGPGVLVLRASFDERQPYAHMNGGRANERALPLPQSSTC

The compound “insulin-like growth factor binding protein like protein 1 (IGFBPL1), recombinant (R&D system, 4130-BL) (from UniProt Q80W15 18-270) (ligand)” showed a PI3K phosphorylation (Western blot, BV2 microglia) in assay [1] of 8 fold.

For `CC(C)=CC/C=C(\C)[C@H]1CC[C@]2(C)[C@@H]1[C@H](O)C[C@@H]1[C@@]3(C)CC[C@H](O[C@@H]4O[C@H](CO)[C@@H](O)[C@H](O)[C@H]4O[C@@H]4O[C@H](CO)[C@@H](O)[C@H](O)[C@H]4O)C(C)(C)[C@@H]3CC[C@]12C` [Rg5, ginsenoside RG5], the “Anti-inflammatory effect on IL-6 induction (qPCR)” value in assay [2] was “largest anti-inflammatory effect; also recorded: greatest anti-inflammatory effect”. In assay [3], the “RGC function (pSTR amplitudes) and vision (visual acuity, contrast sensitivity)” value was “protects RGC function and vision against ischemic optic neuropathy-induced functional loss”.
